Test results as given in patent US6376497B1, “Antifungal azole derivatives having a fluorinated vinyl group and process for preparing same” (Korea Research Institute of Chemical Technology, priority 1999, dated 2002).

What was measured:
Experiment in all cases: In vitro antifungal activity, microbroth dilution MIC
Assay type in all cases: cell-based
[1] = tested on: Aspergillus furnigatus B. 19119; conditions: RPMI-1640, 35° C., 4 to 48 hours, no growth observed
In short: (§1)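 Broth microdilution adapted from NCCLS M27, in RPMI-1640 with 0.165 M MOPS, pH 7.0. Yeast or mould inoculum at 2×10^3 CFU/ml was mixed 1:1 with DMSO-derived compound solutions (200 to 0.10 μg/ml before mixing) and incubated at 35 °C for 4 to 48 h. MIC was the concentration showing no growth.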

[2] = tested on: Aspergillus niger A. 16404; conditions: RPMI-1640, 35° C., 4 to 48 hours, no growth observed
In short: as §1

[3] = tested on: Candida albicans A. 10231; conditions: 4 to 48 hours; for Minimal inhibitory concentration (MIC): C. albicans A. 10231, RPMI-1640, 35° C.
In short: as §1

[4] = tested on: Candida albicans C1-2; conditions: 4 to 48 hours; for Minimal inhibitory concentration (MIC): C. albicans C1-2, RPMI-1640, 35° C.
In short: as §1

[5] = tested on: Candida albicans IFO. 1385; conditions: RPMI-1640, 35° C., 4 to 48 hours, no growth observed
In short: as §1

[6] = tested on: Candida krusei K. 11655; conditions: RPMI-1640, 35° C., 4 to 48 hours, no growth observed
In short: as §1

[7] = tested on: Candida parapsitosis A. 7330; conditions: RPMI-1640, 35° C., 4 to 48 hours, no growth observed
In short: as §1

[8] = tested on: Candida pseudotropicalis K. 11658; conditions: RPMI-1640, 35° C., 4 to 48 hours, no growth observed
In short: as §1

[9] = tested on: Candida tropicalis A. 13803; conditions: RPMI-1640, 35° C., 4 to 48 hours, no growth observed
In short: as §1

[10] = tested on: Cryptococcus neoformans A. 34144; conditions: RPMI-1640, 35° C., 4 to 48 hours, no growth observed
In short: as §1

[11] = tested on: Cryptococcus neoformans B. 42419; conditions: RPMI-1640, 35° C., 4 to 48 hours, no growth observed
In short: as §1

[12] = tested on: Cryptococcus neoformans IFM. 40092; conditions: RPMI-1640, 35° C., 4 to 48 hours, no growth observed
In short: as §1

[13] = tested on: Torulopsis glabrata B. 16205; conditions: RPMI-1640, 35° C., 4 to 48 hours, no growth observed
In short: as §1

[14] = tested on: Trichophyton mentagrophytes A. 9129; conditions: RPMI-1640, 35° C., 4 to 48 hours, no growth observed
In short: as §1

[15] = tested on: Trichophyton mentagrophytes B. 32663; conditions: RPMI-1640, 35° C., 4 to 48 hours, no growth observed
In short: as §1

[16] = RPMI-1640, 35° C., no growth observed

Minimal inhibitory concentration(MIC), A furnigatus B. 19119 [1] [µg/mL]	Minimal inhibitory concentration(MIC), A. niger A. 16404 [2] [µg/mL]	Minimal inhibitory concentration (MIC) [3] [µg/mL]	Minimal inhibitory concentration (MIC) [4] [µg/mL]	Minimal inhibitory concentration(MIC), C. albicans IFO. 1385 [5] [µg/mL]	Minimal inhibitory concentration(MIC), C. krusei K. 11655 [6] [µg/mL]	Minimal inhibitory concentration(MIC), C. parapsitosis A. 7330 [7] [µg/mL]	Minimal inhibitory concentration(MIC), C. pseudotropicalis K. 11658 [8] [µg/mL]	Minimal inhibitory concentration(MIC), C. tropicalis A. 13803 [9] [µg/mL]	Minimal inhibitory concentration(MIC), Cry. neoformans A. 34144 [10] [µg/mL]	Minimal inhibitory concentration(MIC), Cry. neoformans B. 42419 [11] [µg/mL]	Minimal inhibitory concentration(MIC), Cry. neoformans IFM. 40092 [12] [µg/mL]	Minimal inhibitory concentration(MIC), T. glabrata B. 16205 [13] [µg/mL]	Minimal inhibitory concentration(MIC), T. mentagrophytes A. 9129 [14] [µg/mL]	Minimal inhibitory concentration(MIC), T. mentagrophytes B. 32663 [15] [µg/mL]	Minimal inhibitory concentration(MIC), C. albicans A. 10231 [3, 16] [µg/mL]	Minimal inhibitory concentration(MIC), C. albicans C1-2 [4, 16] [µg/mL]	SMILES
>100	>100	>100	>100	>100	>100	>100	>100	>100	>100	>100	1.56	>100	>100	>100	–	–	FC(OCC1COC(Cn2cncn2)(c2ccc(Cl)cc2Cl)O1)=C(c1ccccc1)C(F)(F)F (mixture of isomers) [Ex. 79]
>100	>100	>100	>100	12.5	>100	>100	>100	>100	1.56	1.56	0.78	>100	100	100	–	–	Cc1cccc(C(=C(F)OCC2COC(Cn3cncn3)(c3ccc(Cl)cc3Cl)O2)C(F)(F)F)c1 (mixture of isomers) [Ex. 80]
>100	>100	–	–	12.5	>100	>100	50.0	>100	0.78	1.56	0.39	>100	100	100	>100	>100	Cc1ccc(C(=C(F)OCC2COC(Cn3cncn3)(c3ccc(Cl)cc3Cl)O2)C(F)(F)F)cc1 (mixture of isomers) [Ex. 81]

The remaining lines, values behind:

SMILES	Minimal inhibitory concentration(MIC), A furnigatus B. 19119 [1] [µg/mL]	Minimal inhibitory concentration(MIC), A. niger A. 16404 [2] [µg/mL]	Minimal inhibitory concentration (MIC) [3] [µg/mL]	Minimal inhibitory concentration (MIC) [4] [µg/mL]	Minimal inhibitory concentration(MIC), C. albicans IFO. 1385 [5] [µg/mL]	Minimal inhibitory concentration(MIC), C. krusei K. 11655 [6] [µg/mL]	Minimal inhibitory concentration(MIC), C. parapsitosis A. 7330 [7] [µg/mL]	Minimal inhibitory concentration(MIC), C. pseudotropicalis K. 11658 [8] [µg/mL]	Minimal inhibitory concentration(MIC), C. tropicalis A. 13803 [9] [µg/mL]	Minimal inhibitory concentration(MIC), Cry. neoformans A. 34144 [10] [µg/mL]	Minimal inhibitory concentration(MIC), Cry. neoformans B. 42419 [11] [µg/mL]	Minimal inhibitory concentration(MIC), Cry. neoformans IFM. 40092 [12] [µg/mL]	Minimal inhibitory concentration(MIC), T. glabrata B. 16205 [13] [µg/mL]	Minimal inhibitory concentration(MIC), T. mentagrophytes A. 9129 [14] [µg/mL]	Minimal inhibitory concentration(MIC), T. mentagrophytes B. 32663 [15] [µg/mL]	Minimal inhibitory concentration(MIC), C. albicans A. 10231 [3, 16] [µg/mL]	Minimal inhibitory concentration(MIC), C. albicans C1-2 [4, 16] [µg/mL]
FC(=Cc1ccc2c(c1)OCO2)OCC1COC(Cn2cncn2)(c2ccc(Cl)cc2Cl)O1 (mixture of isomers) [Ex. 75]	100	>100	100	100	25.0	100	>100	25.0	100	1.56	1.56	0.39	50.0	3.13	3.13	–	–
FC(=Cc1ccc(Cl)cc1)OCC1COC(Cn2cncn2)(c2ccc(Cl)cc2Cl)O1 (mixture of isomers) [Ex. 76]	25.0	12.5	6.25	6.25	6.25	>100	>100	100	25.0	3.13	3.13	0.78	25.0	3.13	3.13	–	–
FC(=Cc1ccc(F)cc1)OCC1COC(Cn2cncn2)(c2ccc(Cl)cc2Cl)O1 (mixture of isomers) [Ex. 77]	100	>100	100	100	25.0	12.5	12.5	6.25	100	3.13	1.56	0.78	50.0	6.25	6.25	–	–
